Results as given in patent publication US10407712B2, “Methods, compositions and kits for high throughput kinase activity screening using mass spectrometry and stable isotopes” (President and Fellows of Harvard College, priority 2008, dated 2019).

Tested on: HEK293 cell lysates
Assay: KAYAK in vitro kinase assay, individual reactions, lysates of starved, insulin- or EGF-stimulated HEK293 cells
Format: biochemical, human
Experimental: For stimulation of HEK293 cells or HeLa lines, cells were treated with insulin (100 nM; 10-30 min) EGF (50 ng/ml; 10 min) or phorbol 12-myristate 13-acetate (PMA; 50 or 100 ng/ml; 10 -30 min) at 37° C. for the indicated times after overnight serum-starvation.
For cell lysis, the media were removed, and cells were washed with ice-cold phosphate-buffered saline (PBS) and lysed with ice-cold lysis buffer (10 mM K2HPO4 pH 7.5, 1 mM EDTA, 10 mM MgCl2, 50 mM β-glycerophosphate, 5 mM EGTA, 0.5% Nonidet P-40, 0.1% Brij 35, 0.1% deoxycholic acid, 1mM sodium orthovanadate, 1mM phenylmethyl-sulfonyl fluoride, 5 μg/ml leupeptin and 5 μg/ml pepstatin A). Lysates were centrifuged at 10,000 rpm for 10 min to remove cell debris, and clear supernatant was used for immunoblotting and in vitro kinase assays. Protein concentration was determined by Bradford assay (Biorad, Hercules, Calif.).
Peptides were synthesized, purified and quantified as described in Yu et al. 2009 Proc Natl Acad Sci USA 106: 11606-11611, hereby incorporated by reference herein in its entirety. Each substrate peptide (250 pmol) was mixed to a final concentration of 5 μM in the 50 μL reaction mixture. Alternatively, reactions were performed using 6 μg cell lysate aliquotes mixed to a final volume of 20 μl. Cell lysate or other kinase source was added to the substrate mixture in 25 mM Tris-Cl, pH 7.5, containing 5 mM ATP, 7.5 mM MgCl2, 0.2 mM EGTA, 7.5 mM β-glycerophosphate, 0.1 mM Na3VO4, and 0.1 mM DTT. The reaction was incubated at 25° C. for 60 min and then terminated by the addition of 100 μl of 1% trifluoroacetic acid (TFA) containing a known amount of an internal standard (typically 20 pmol). Alternatively, the reaction was incubated at 20° C. for 45 min before termination with TFA.
Forty-five individual in vitro kinase reaction mixtures were combined and desalted by using Sep-Pak C18 cartridge (Waters, Milford, Mass.). Phosphopeptides were enriched by immobilized metal ion chromatography (IMAC) with 20 μl of beads (Phos-Select iron affinity gel; Sigma, St. Louis, Mo.) and subsequently desalted by using Empore C18 solid phase extraction disks (3M, St. Paul, Minn.) as described previously.
Quantitation of the target peptide-internal standard ratios was performed by first constructing the extracted ion chromatogram for the most abundant charge state for each peptide using a ±10 ppm window. Chromatograms were integrated using Qual/Quan browser (Xcalibur 2.0.5, Thermo Fisher, San Jose, Calif.). Since the phosphorylated peptides generated from the in vitro kinase reactions were chemically identical to the internal standards, they were assumed to have the same ionization efficiency. Therefore, the amount of each phosphorylated peptide was calculated by direct ratio to the internal standard level.
To test substrate suitability in a multiplexed assay, the phosphorylation activities were measured using […] of each substrate peptide, 6 μg lysate, and 5 mM ATP in a plate format. Reactions proceeded for 60 minutes followed by acidification and the addition of isotope-labeled reference peptides. After pooling 45 samples, phosphopeptide enrichment was followed by liquid-chromatography (LC) separation and on-line peptide detection by high-resolution mass spectrometry.
The ability of the peptides to report specific changes in kinase activation after pathway stimulation was examined herein. Lysates from HEK293 cells were collected after insulin or EGF treatment and were compared to their activities in the serum-starved state using the KAYAK approach. Western blot analysis of lysates from cells in which the PI3K and MAPK pathways were activated, as indicated by elevated phospho-Akt and phospho-ERK1/2 levels, respectively, is shown in FIG. 1D. […]

RIRTQSFSLQPFR (The sequence was designed and synthesized) [F6]
E: changed phosphorylation in EGF stimulated condition (EGF-stimulated compared to starved HEK293 cells): ++ (A change of more than +4 and −4 fold is indicated by “++” and “−−”, respectively.)
I: changed phosphorylation in insulin stimulated condition (insulin-stimulated compared to starved HEK293 cells): + (A change of more +2 fold and −2 fold is indicated by “+” and “−”, respectively.)
